Laboratory results published in paper PMC8476055, “Synthesis and Biological Activity of Triterpene–Coumarin Conjugates” (Journal of Natural Products, 2021).

Tests used:
[1] = MTT assay, statements over the three nontumor cell lines; type: cell-based; details: human, rat, at the IC50 concentration of the respective cancer cell line; over HPF, IEC-18, WRL68; read-out: cell viability percentage of nontumor cells
From the text: (§1) Only MA conjugates 7 and 10 were selected to compare the growth inhibitory effects in the three nontumor cell lines (HPF, IEC-18, and WRL68) versus the three cancer cell lines (B16–F10, HT29, and Hep G2). Therefore, the cytotoxic effects on B16–F10 murine melanoma cells were compared with those of HPF normal human epithelial lung fibroblasts, with similar tissue. Similarly, the cytotoxic effects of these conjugates on HT29 colon cancer cells and Hep G2 hepatoma cells were compared with those of nontumor cells of the same tissue, such as IEC-18 normal rat ileum cells and WRL68 normal human embryo liver cells, respectively.
The effect of the synthesized compounds on the viability of tumor cells was assessed using an MTT assay, based on the ability of living cells to cleave the tetrazolium ring, thus producing formazan, which absorbs at 570 nm. The MA conjugates (1–12) were assayed against the selected cancer cell lines. […] Relative cell viability, with respect to untreated control cells, was measured by absorbance at 550 nm on an ELISA plate reader (Tecan Sunrise MR20-301, TECAN, Austria). […] These experiments were measured and compared to the control after 72 h of treatment.

[2] = test system: IEC-18 normal rat ileum cells; test: MTT assay, nontumor IEC-18 cells; type: cell-based; details: Rattus norvegicus, IEC-18; MTT, untreated control = 100% viability; read-out: IC50, growth inhibition of IEC-18 non-tumor cells
From the text: as §1
(§2) […] ATTC HTB-38), Hep G2 human hepatocyte carcinoma cells (ECACC 85011430), nontumor human epithelial lung fibroblast cells HPF (ScienCell catalog (cat.) no. 3300), nontumor rat ileum cells IEC-18 (ECACC no. 88011801), and nontumor human embryo liver cells (ECACC 89121403) were cultured in DMEM medium supplemented with 2 mM glutamine, 10% heat-inactivated fetal bovine serum (FCS), 10.000 units/mL penicillin, and […]. These cells were incubated at 37 °C in an atmosphere of 5% CO2 and 95% humidity. The culture media were changed every 48 h, and the confluent cultures were separated with a trypsin solution (0.25% EDTA). Subconfluent monolayer cells were used in all experiments. All cell lines used were provided by the cell bank of the University of Granada (Spain).
(§3) The effect of the synthesized compounds on the viability of tumor cells was assessed using an MTT assay, based on the ability of living cells to cleave the tetrazolium ring, thus producing formazan, which absorbs at 570 nm. The MA conjugates (1–12) were assayed against the selected cancer cell lines. For an evaluation of the cytotoxic effects of these compounds, the cells were seeded in 96-well plates at an initial density of 5 × 10^3 B16–F10 cells, 6 × 10^3 HT29 cells, 15 × 10^3 Hep G2 cells, 8 × 10^3 HPF cells, 15 × 10^3 IEC-18 cells, and 11 × 10^3 WRL68 cells, per well. After incubation for 24 h, the cells were treated with the synthesized compounds in triplicate, at different concentrations (0–200 μg/mL), and incubated for 72 h. Thereafter, 100 μL of MTT solution (0.5 mg/mL) were added to each well. After 2 h of incubation, the cells were washed twice with phosphate buffered saline (PBS), and the formazan was resuspended in 100 μL of DMSO. Relative cell viability, with respect to untreated control cells, was measured by absorbance at 550 nm on an ELISA plate reader (Tecan Sunrise MR20-301, TECAN, Austria). […] These experiments were measured and compared to the control after 72 h of treatment.

[3] = MTT assay, nontumor IEC-18 cells; type: cell-based, rat; details: rat, IEC-18 normal ileum cells; at the compound's IC50 concentration for HT29 cancer cells
From the text: as §1, §2, §3

| Compound | viability at 72 h [1] [%] | IC50 [2] [µM] | viability at 72 h [3] [%] |
| --- | --- | --- | --- |
| CC1(C)CC[C@]2(C(=O)O)CC[C@]3(C)C(=CC[C@@H]4[C@@]5(C)C[C@@H](OC(=O)c6cc7ccccc7oc6=O)[C@H](OC(=O)c6cc7ccccc7oc6=O)C(C)(C)[C@@H]5CC[C@]43C)[C@@H]2C1 [Compound 10] | 90 | 7.4 ± 0.7 | 89.3 ± 2.2 |
| CC1(C)CC[C@]2(C(=O)NCCCNC(=O)/C=C/c3ccc(O)cc3)CC[C@]3(C)C(=CC[C@@H]4[C@@]5(C)C[C@@H](O)[C@H](O)C(C)(C)[C@@H]5CC[C@]43C)[C@@H]2C1 [Compound 7, 2α,3β-Dihydroxy-N-(3′-((E)-3″-(4‴-hydroxyphenyl)acrylamido)propyl)olean-12-en-28-amide] | 61 to 88 | 19.6 ± 0.3 | 88 ± 0.6 |
